The nature of series [1]: solubility in different solvents. In kind it is physicochemical. Conditions: in solvents such as isopropanol, acetone, chloroform, 2-phenylethanol and Triton-X100. The procedure: Numerous studies were conducted in order to obtain optimum compositions of the active agent in which an improvement of solubility and, a prevention of the formation of crystals is achieved. […] Therefore, the carriers must be non-toxic, non-carcinogenic and skin compatible and, furthermore, should be odour neutral. Moreover, these carriers, e.g. solvents or emulsifiers, should be compatible with the major part of the topical composition, i.e. an aqueous phase or an oil phase, and should not form a separate phase or lead to the precipitation of the active agent.

Series [2] can be described thus: stability of ethanolic solutions of the active agent. In kind it is physicochemical. An excerpt: During investigations regarding the solubility of, in particular, 2-hydroxy-5-methyl-laurophenone oxime, solutions could be prepared which are stable after 4 days at room temperature under the exclusion of UV light. These solutions were ethanolic solutions of the active agent which included further components such as 0.8/1.0 and 2.0% PEG600 or PEG6000. The active agent was present in these solutions in an amount of 10 wt. %. […] These solutions can be incorporated into water in order to prepare topical formulations.

Take 2-hydroxy-5-methyl-laurophenone oxime: the solubility result in series [1] is on record as “good solubility”. Besides, the formation of crystals result in series [2] (ethanolic PEG solutions, amount of active agent increased above 10 wt. %) is “formation of crystals was observed”; in series [2] (solution of the active agent incorporated into water at 10 to 20 wt. % of the formulation), “in some cases the formation of crystals”. Besides, in series [2] (ethanolic solutions with 0.8/1.0 and 2.0% PEG600 or PEG6000, active agent 10 wt. %, 4 days at room temperature under exclusion of UV light), the stability of solution entry is given as “stable”.

These data come from patent publication US20030176470A1, “Topical composition containing at least one aryl oxime, and method for the preparation thereof” (priority 2000, published 2003).
